Assay results: the NIST ThermoML archive (doi:10.1021/je050173+)

Experiments:
[1] = for mass density / viscosity / thermal conductivity: 101.33 kPa; for mass density / viscosity / thermal conductivity / vapor or sublimation pressure: Liquid; for thermal conductivity: Hot wire method; for surface tension liquid-gas: Maximal bubble pressure
[2] = molar heat capacity at constant pressure; conditions: 101.33 kPa, Liquid

C[Si]1(C)O[Si](C)(C)O[Si](C)(C)O1 [hexamethylcyclotrisiloxane]
Conditions | mass density [kg/m3] | molar heat capacity at constant pressure [J/K/mol] | surface tension liquid-gas [mN/m] | thermal conductivity [W/m/K] | vapor or sublimation pressure [kPa] | viscosity [mPa·s]
[1], 343.15 K | 872.69 | – | – | 0.1026 | – | 0.48
[1], 344.55 K | – | – | 13.54 | – | – | –
[1], 347.35 K | – | – | 13.32 | – | – | –
[1], 347.64 K | – | – | – | – | 13.85 | –
[1], 348.15 K | – | – | – | – | – | 0.46
[1], 348.7 K | 865.41 | – | – | – | – | –
[1], 350.13 K | – | – | – | – | 15.28 | –
[1], 351.45 K | – | – | – | – | 16.19 | –
[1], 353.15 K | – | – | – | – | – | 0.44
[1], 353.95 K | – | – | 12.9 | – | – | –
[1], 354.65 K | 856.98 | – | – | – | – | –
[1], 355.59 K | – | – | – | – | 19.01 | –
[1], 357.4 K | 854.11 | – | – | – | – | –
[1], 358.15 K | – | – | – | – | – | 0.42
[1], 358.45 K | – | – | 12.68 | – | – | –
[1], 359.15 K | 852.6 | – | – | – | – | –
[1], 360.17 K | – | – | – | – | 22.55 | –
[1], 361.61 K | – | – | – | – | 23.75 | –
[1], 362.4 K | – | – | – | – | 24.47 | –
[1], 363.15 K | – | – | 12.33 | – | – | 0.4
[1], 365.71 K | – | – | – | – | 27.62 | –
[1], 366.1 K | 842.76 | – | – | – | – | –
[1], 368.15 K | – | – | 12.02 | – | – | 0.39
[1], 368.81 K | – | – | – | – | 30.71 | –
[1], 369.65 K | 838 | – | – | – | – | –
[1], 372.34 K | – | – | – | – | 34.63 | –
[1], 372.68 K | – | – | – | – | 35.01 | –
[1], 373.15 K | 833.47 | – | 11.71 | – | – | 0.37
[1], 378.15 K | – | – | 11.4 | – | – | 0.35
[1], 379.16 K | 825.64 | – | – | – | – | –
[1], 381.37 K | – | – | – | – | 46.63 | –
[1], 383.15 K | 820.39 | – | 11.09 | – | – | 0.34
[1], 383.78 K | – | – | – | – | 50.31 | –
[1], 387.85 K | 814.16 | – | – | – | – | –
[1], 387.95 K | – | – | – | – | 57.22 | –
[1], 388.15 K | – | – | – | – | – | 0.33
[1], 393.15 K | – | – | – | – | – | 0.32
[1], 397.75 K | – | – | – | – | 76.52 | –
[1], 407.63 K | – | – | – | – | 100.85 | –
[2], 339.9 K | – | 404.5 | – | – | – | –
[2], 343.15 K | – | 405.9 | – | – | – | –
[2], 345.03 K | – | 406.7 | – | – | – | –
[2], 353.15 K | – | 410.4 | – | – | – | –
[2], 357.92 K | – | 412.3 | – | – | – | –
[2], 361.2 K | – | 413.8 | – | – | – | –
[2], 365.09 K | – | 415.6 | – | – | – | –
[2], 370.16 K | – | 418.1 | – | – | – | –
[2], 374.79 K | – | 420.1 | – | – | – | –
[2], 379.42 K | – | 421.8 | – | – | – | –
[2], 383.15 K | – | 423.6 | – | – | – | –
[2], 388.06 K | – | 425.6 | – | – | – | –
[2], 393.14 K | – | 428.1 | – | – | – | –
[2], 398.01 K | – | 430 | – | – | – | –
[2], 400 K | – | 431 | – | – | – | –
[2], 404.89 K | – | 433.2 | – | – | – | –

C[Si]1(C)O[Si](C)(C)O[Si](C)(C)O[Si](C)(C)O[Si](C)(C)O1 [decamethylcyclopentasiloxane]
Conditions | mass density [kg/m3] | molar heat capacity at constant pressure [J/K/mol] | surface tension liquid-gas [mN/m] | thermal conductivity [W/m/K] | vapor or sublimation pressure [kPa] | viscosity [mPa·s]
[1], 293.15 K | – | – | 18.04 | – | – | 4.28
[1], 295.05 K | 956.75 | – | – | – | – | –
[1], 298.15 K | – | – | – | 0.1255 | – | 3.87
[1], 300.1 K | 951.14 | – | – | – | – | –
[1], 303.15 K | – | – | 17.4 | – | – | 3.48
[1], 303.95 K | 946.93 | – | – | – | – | –
[1], 310.3 K | 939.94 | – | – | – | – | –
[1], 313.15 K | – | – | 16.71 | – | – | 2.82
[1], 313.17 K | 936.67 | – | – | – | – | –
[1], 320.5 K | 928.72 | – | – | – | – | –
[1], 323.15 K | – | – | 15.99 | – | – | 2.38
[1], 325.6 K | 923.12 | – | – | – | – | –
[1], 332.95 K | – | – | – | – | – | 2.02
[1], 333.15 K | 915.02 | – | 15.42 | – | – | –
[1], 340.9 K | 906.3 | – | – | – | – | –
[1], 343.15 K | – | – | 14.67 | 0.1186 | – | 1.71
[1], 346.05 K | 900.69 | – | – | – | – | –
[1], 348.23 K | – | – | – | – | 0.703 | –
[1], 350.87 K | – | – | – | – | 0.801 | –
[1], 351.11 K | – | – | – | – | 0.82 | –
[1], 353.1 K | 892.8 | – | – | – | – | –
[1], 353.15 K | – | – | 13.98 | – | – | 1.48
[1], 355.91 K | – | – | – | – | 1.103 | –
[1], 357.29 K | – | – | – | – | 1.207 | –
[1], 361.2 K | – | – | – | – | 1.468 | –
[1], 363.15 K | – | – | 13.3 | – | – | –
[1], 366.4 K | 878.24 | – | – | – | – | –
[1], 370.08 K | – | – | – | – | 2.381 | –
[1], 373.15 K | 870.77 | – | 12.64 | – | – | 1.11
[1], 374.37 K | – | – | – | – | 2.913 | –
[1], 377.85 K | – | – | – | – | 3.452 | –
[1], 378.07 K | – | – | – | – | 3.482 | –
[1], 380.74 K | – | – | – | – | 3.901 | –
[1], 381.7 K | 861.4 | – | – | – | – | –
[1], 391.9 K | 850.17 | – | – | – | – | –
[1], 393.15 K | – | – | 11.28 | – | – | 0.86
[1], 394.66 K | – | – | – | – | 7.191 | –
[1], 397 K | 844.55 | – | – | – | – | –
[1], 398.63 K | – | – | – | – | 8.45 | –
[1], 402.72 K | – | – | – | – | 9.938 | –
[1], 407.2 K | 833.32 | – | – | – | – | –
[1], 412.81 K | – | – | – | – | 14.52 | –
[1], 413.15 K | 826.73 | – | 9.93 | – | – | 0.69
[1], 416.46 K | – | – | – | – | 16.55 | –
[1], 417.4 K | 822.08 | – | – | – | – | –
[1], 422.5 K | 816.45 | – | – | – | – | –
[1], 423.94 K | – | – | – | – | 21.39 | –
[1], 432.91 K | – | – | – | – | 28.6 | –
[1], 433.15 K | 804.71 | – | 8.57 | – | – | –
[1], 439.98 K | – | – | – | – | 35.47 | –
[1], 442.9 K | 793.98 | – | – | – | – | –
[1], 448.41 K | – | – | – | – | 45.28 | –
[1], 453.15 K | 782.6 | – | – | – | – | 0.46
[1], 455.39 K | – | – | – | – | 54.85 | –
[1], 462.39 K | – | – | – | – | 66.09 | –
[1], 473.15 K | – | – | – | – | – | 0.39
[1], 479.53 K | – | – | – | – | 100.9 | –
[1], 493.15 K | – | – | – | – | – | 0.33
[2], 288.78 K | – | 636.3 | – | – | – | –
[2], 293.13 K | – | 638.5 | – | – | – | –
[2], 297.95 K | – | 640.6 | – | – | – | –
[2], 303.18 K | – | 643.1 | – | – | – | –
[2], 308.95 K | – | 644.5 | – | – | – | –
[2], 313.15 K | – | 647.7 | – | – | – | –
[2], 319 K | – | 650.4 | – | – | – | –
[2], 323.15 K | – | 652.4 | – | – | – | –
[2], 329.05 K | – | 655.1 | – | – | – | –
[2], 334.74 K | – | 657.9 | – | – | – | –
[2], 338.5 K | – | 659.5 | – | – | – | –
[2], 342.08 K | – | 661.2 | – | – | – | –
[2], 349.25 K | – | 664.5 | – | – | – | –
[2], 352.2 K | – | 667.1 | – | – | – | –
[2], 356.83 K | – | 668 | – | – | – | –
[2], 361.28 K | – | 670.1 | – | – | – | –
[2], 366.35 K | – | 672.4 | – | – | – | –
[2], 370.25 K | – | 674.2 | – | – | – | –
[2], 375.43 K | – | 676.6 | – | – | – | –
[2], 380.95 K | – | 679.1 | – | – | – | –
[2], 388.65 K | – | 682.5 | – | – | – | –
[2], 391.43 K | – | 684 | – | – | – | –
[2], 399.84 K | – | 687.9 | – | – | – | –
[2], 401.55 K | – | 688.6 | – | – | – | –
[2], 407.15 K | – | 691.2 | – | – | – | –
[2], 412.77 K | – | 693.8 | – | – | – | –
[2], 419.95 K | – | 697.1 | – | – | – | –
[2], 425.95 K | – | 698.5 | – | – | – | –
[2], 433.28 K | – | 703.2 | – | – | – | –
[2], 439.98 K | – | 706.3 | – | – | – | –
[2], 444.9 K | – | 709.2 | – | – | – | –
[2], 452.4 K | – | 711.9 | – | – | – | –
[2], 463.15 K | – | 716.9 | – | – | – | –
[2], 469.05 K | – | 719.5 | – | – | – | –
[2], 473.15 K | – | 721.5 | – | – | – | –
